Laboratory results as given in US11085056B2, “Transfection complexes and methods of using the same” (MOLECULAR TRANSFER, INC., priority 2015, dated 2021).

Experiments:
Human Fibroblast Cells = assay: Transfection of human fibroblast cells with DOTMA/DOPE/peptide and eGFP plasmid, fluorescent plate reader; format: cell-based; details: DOTMA/DOPE 1:1 plus peptide with RRRRRRRRRRRR (SEQ ID NO: 109) at n terminus; EF1Alpha eGFP plasmid; 0.01 mL complex; 42 hours
In short: (§1)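 Cells at 60-70% confluence got DOTMA/DOPE (1:1) mixed with peptides bearing an N-terminal R12 DNA-binding tag, complexed 10 min with EF1α-eGFP plasmid (5 μg/mL in OptiMEM); 0.01 or 0.02 mL complex per well. After 42 h at 37 °C, GFP read by fluorescence plate reader and % transfected cells by microscopy, relative to lipid without peptide.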

HeLa Cells [1] = assay: Transfection of HeLa cells with DOTMA/SEQ ID NO: 72/peptide compared with Lipofectamine 2000; format: cell-based; details: fusogenic peptide 0.1 mg/mL
In short: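 HeLa cells at 60–70% confluence received 0.01 mL of complexes of EF1Alpha eGFP plasmid (5 μg/mL in OptiMEM) with DOTMA/DOPE (1:1) plus R12-linked peptide, with fusogenic peptide at 0.1 mg/mL final. GFP read by fluorescence plate reader and microscopy (% cells transfected) after 42 h at 37 °C.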

Jurkat Cells = assay: Transfection of Jurkat cells with DOTMA/DOPE/peptide and eGFP plasmid, fluorescent plate reader; format: cell-based; details: DOTMA/DOPE 1:1 plus peptide with RRRRRRRRRRRR (SEQ ID NO: 109) at n terminus; EF1Alpha eGFP plasmid; 0.02 mL complex; 42 hours
In short: as §1

HeLa Cells [2] = assay: Transfection of HeLa cells with DOTMA/DOPE/peptide and eGFP plasmid, fluorescent plate reader; format: cell-based; details: DOTMA/DOPE 1:1 plus peptide with RRRRRRRRRRRR (SEQ ID NO: 109) at n terminus; EF1Alpha eGFP plasmid; 0.01 mL complex; 42 hours
In short: as §1

C2C12 Cells = assay: Transfection of C2C12 cells with DOTMA/DOPE/peptide and eGFP plasmid, fluorescent plate reader; format: cell-based, mouse; details: DOTMA/DOPE 1:1 plus peptide with RRRRRRRRRRRR (SEQ ID NO: 109) at n terminus; EF1Alpha eGFP plasmid; 0.02 mL complex; 42 hours
In short: as §1

HuVec Cells = assay: Transfection of HuVec cells with DOTMA/DOPE/peptide and eGFP plasmid, fluorescent plate reader; format: cell-based; details: DOTMA/DOPE 1:1 plus peptide with RRRRRRRRRRRR (SEQ ID NO: 109) at n terminus; EF1Alpha eGFP plasmid; 0.01 mL complex; 42 hours
In short: as §1

some examined cell types = assay: Transfection expression and % cells transfected over the no peptide control; format: cell-based; details: on some examined cell types
In short: as §1

NL-1 iPS Cells = assay: Transfection of NL-1 iPS cells with DOTMA/DOPE/peptide and eGFP plasmid, fluorescent plate reader; format: cell-based; details: DOTMA/DOPE 1:1 plus peptide with RRRRRRRRRRRR (SEQ ID NO: 109) at n terminus; EF1Alpha eGFP plasmid; 42 hours
[3] = 0.1 μL of DOTMA/SEQ ID NO: 72/Peptide in well of a 96 well plate
[4] = 0.2 μL of DOTMA/SEQ ID NO: 72/Peptide in well of a 96 well plate
[5] = 0.3 μL of DOTMA/SEQ ID NO: 72/Peptide in well of a 96 well plate
[6] = 0.4 μL of DOTMA/SEQ ID NO: 72/Peptide in well of a 96 well plate

| Substance | RF (Relative Fluorescence) of Transfection of Human Fibroblast Cells (Human Fibroblast Cells) | RF (Relative Fluorescence), DOTMA/SEQ ID NO: 72/Peptide, HeLa Cells (HeLa Cells [1]; [3]) | RF (Relative Fluorescence), DOTMA/SEQ ID NO: 72/Peptide, HeLa Cells (HeLa Cells [1]; [4]) | RF (Relative Fluorescence), DOTMA/SEQ ID NO: 72/Peptide, HeLa Cells (HeLa Cells [1]; [5]) | RF (Relative Fluorescence), DOTMA/SEQ ID NO: 72/Peptide, HeLa Cells (HeLa Cells [1]; [6]) | RF (Relative Fluorescence) of Transfection of Jurkat Cells (Jurkat Cells) | RF (Relative Fluorescence) of Transfection of HeLa Cells (HeLa Cells [2]) | RF (Relative Fluorescence) of Transfection of C2C12 Cells (C2C12 Cells) | RF (Relative Fluorescence) of Transfection of HuVec Cells (HuVec Cells) | transfection expression and the % cells transfected over the no peptide control (some examined cell types) | RF (Relative Fluorescence) of Transfection of NL-1 iPS Cells (NL-1 iPS Cells) |
| --- | --- | --- | --- | --- | --- | --- | --- | --- | --- | --- | --- |
| 343 (LFSHAVSSNG; Peptidic transfection agent) [compound 343] | 4590 | 6961 | 8626 | 8577 | 8160 | 23499 | 5910 | 3218 | 16239 | increased | 21726 |
| 365 (ISRCQVCMKKRH; Peptidic transfection agent) [compound 365] | 5219 | 26620 | 43775 | 36054 | 21540 | 5298 | 36093 | 5390 | 14764 | increased | 6364 |
| 381 (TAGSCL; Peptidic transfection agent) [compound 381] | 9953 | 34187 | 37463 | 27007 | 20088 | 10806 | 22652 | 8834 | 17542 | increased | 9644 |
| 360 (GDLGRPGRKGRPGPP; Peptidic transfection agent) [compound 360] | 5347 | 9946 | 11168 | 10381 | 8995 | 16607 | 8516 | 2090 | 24042 | increased | 27572 |
| 341 (LRAHAVDVNG; Peptidic transfection agent) [compound 341] | 2284 | 6406 | 7469 | 8020 | 7546 | 18042 | 4108 | 2141 | 15906 | increased | 20446 |
| 454 (TGLSCLQRFTTM; Peptidic transfection agent) [compound 454] | 7568 | 34033 | 37099 | 27412 | 16023 | 8224 | 34550 | 9280 | 13336 | increased | 18100 |
| 218 (SPPRRARVT; Peptidic transfection agent) [compound 218] | 11230 | 12686 | 13103 | 10151 | 10081 | 21451 | 11179 | 3706 | 14827 | increased | 17049 |
| 358 (GHRGPTGRPGKRGKQGQKGDS; Peptidic transfection agent) [compound 358] | 5665 | 12331 | 12683 | 13686 | 11097 | 18820 | 15132 | 2271 | 25398 | increased | 21956 |
| 328 (NWRHISYITRFG; Peptidic transfection agent) [compound 328] | 5641 | 11037 | 12229 | 10801 | 10951 | 4770 | 32528 | 5507 | 3614 | increased | 8611 |
| 377 (TAGSCLRRFSTM; Peptidic transfection agent) [compound 377] | 6638 | 39115 | 40072 | 32914 | 22457 | 6785 | 15091 | 1710 | 9326 | increased | 5474 |
| 237 (KNSFMALYLSKG; Peptidic transfection agent) [compound 237] | 2184 | 8986 | 9753 | 8015 | 8288 | 1501 | 21288 | 6491 | 2302 | increased | 8632 |
| 369 (TAIPSCPEGTVPLYS; Peptidic transfection agent) [compound 369] | 7590 | 8737 | 16706 | 14880 | 12645 | 11085 | 14444 | 3322 | 6536 | increased | 13124 |
